Laboratory results taken from US12084698B2, “Virus-like particles and use thereof” (priority 2018, dated 2024).

Tests used:
DMD gene = test: T7EI assay in HEK293T EGxxFP cells expressing sgRNA DMD #1; format: cell-based, human; conditions: VLPs prepared in presence or absence of AP21967
Procedure: By using MonoFas Genomic DNA Extraction kit (GL Sciences Inc.), genomic DNA was recovered from the cultured cells according to the protocol. Then, PCR was performed using 100 ng of the genomic DNA, primers for the regions to be amplified, and PrimeSTAR GXL DNA Polymerase (Takara Bio Inc.), and the PCR product was purified using Wizard SV Gel and PCR Clean-up System (Promega Corporation).
Subsequently, 400 ng of the PCR product was thermally denatured in NEBuffer 2.1 (New England Biolabs) at 95° C. for 5 minutes and then reannealed by slow cooling. The PCR product was cooled to 85° C. from 95° C. at −2° C./sec and then to 25° C. from 85° C. at −0.1° C./sec. Subsequently, 10 units of T7 endonuclease I (T7EI) enzyme was added thereto and reacted at 37° C. for 15 minutes. Thereafter, 6 mM of EDTA was added thereto so that the reaction stopped. Then, the cleavage products were analyzed using DS1000 High Sensitivity Screen Tape and Tape Station 2200 (Agilent Technologies, Inc.).
Then, the cleavage activity for the target DMD gene on the genome was measured by T7EI assay.
After 3 days, genomic DNA was extracted from each of the cells. Subsequently, the target region of the DMD gene on the genome was amplified by PCR. Thereafter, the PCR product was purified using columns, and by using 400 ng of the obtained DNA, mutation introduction efficiency was measured by T7EI assay.

[1] = system: DNA (700 bp) including a dystrophin target sequence; test: In vitro DNA cleavage activity of VLP lysate; format: biochemical, human; conditions: VLPs prepared in presence or absence of AP21967
Procedure: Thereafter, in order to test the amount of the Cas9 protein contained in VLPs, in vitro DNA cleavage activity was measured. Specifically, Lysis buffer was added to each of the concentrated VLPs, and the mixture was left to stand on ice for 10 minutes so that the VLPs were lysed.
After the reaction, in order to remove sgRNA, RNase A was added thereto and reacted at 37° C. for 30 minutes. Furthermore, in order to remove proteins, proteinase K was added thereto and reacted at 50° C. for 20 minutes.
Then, these samples were subjected to electrophoresis using 2200 TapeStation (high sensitivity D1000 TapeScreen, Agilent Technologies, Inc.), and the proportion of cleaved DNA including the dystrophin target sequence was measured.

[2] = system: EGxxFP reporter construct in HEK293T EGxxFP cells; test: SSA-EGFP (EGxxFP) reporter experiment, flow cytometry of GFP-positive cells; format: cell-based, human; conditions: VLPs prepared at 0, 3, 30, 300 nM AP21967; 5×10^4 cells; 3 days
Procedure: The HEK293T EGxxFP cells were seeded on a 48-well plate at 2.5×10^4 to 5.0×10^4 cells/well. On the next day, the VLP solution was added thereto, and then after 3 days, the fluorescence of EGFP was analyzed using an LSR3 flow cytometer.
FIG. 2 is a schematic view illustrating an SSA-EGFP (hereinafter, called “EGxxFP” in some cases) reporter experiment. As cells, HEK293T cells were used which constantly express sgRNA targeting the human Dystrophin (DMD) gene and have genome into which the EGxxFP reporter construct (SEQ ID NO: 21) was inserted. The EGxxFP reporter construct is a construct designed by inserting a sequence including the target sequence of the sgRNA into the EGFP cDNA sequence, so that a functional EGFP protein is not expressed.
Then, the cleaved EGFP cDNA is repaired by single-strand annealing (SSA). As a result, functional EGFP is expressed, and the fluorescence of EGFP can be observed. In this experimental system, by quantifying the fluorescence of EGFP in the cells by using a flow cytometer, it is possible to evaluate the target gene cleavage efficiency (genome editing efficiency) of the Cas9 protein in cell populations.
Then, the prepared VLPs (15 μL) were introduced into the HEK293T EGxxFP reporter cells (5×10^4 cells expressing sgRNA). Subsequently, after 3 days, the proportion of GFP-positive cells was analyzed with a flow cytometer.

HIV protease = HIV protease (Human immunodeficiency virus type 1 group M subtype B, UniProt P04585); conditions: Darunavir added to cells in preparing VLPs
Procedure: First, in the presence or absence of Darunavir (HIV protease inhibitor), VLPs (FIGS. 1(a) and 1(b)) were prepared which were constituted with wild-type Gag-Pol^HIV or FKBP12-Gag-Pol^HIV derived from HIV and encapsulated a Cas9 protein fused with an FRB domain (hereinafter, called “FRB-Cas9 protein” in some cases).
Subsequently, FKBP12-Gag-Pol^HIV and the HA-tagged FRB-Cas9 protein in each of the above VLPs were quantified by Western blotting.

Compound	encapsulation of Cas9 in VLPs on addition of AP21967 (DMD gene)	encapsulation of Cas9 in VLPs on addition of AP21967 [1]	genome editing efficiency (proportion of GFP-positive cells) [2]	cleavage of Gag protein and degradation of Cas9 protein in VLPs (HIV protease)
CO[C@H]1[C@@H](O)[C@H](C)C[C@H](C)/C=C/C=C/C=C(\C)[C@@H](c2c[nH]c3c(C)cccc23)C[C@@H]2CC[C@@H](C)[C@@](O)(O2)C(=O)C(=O)N2CCCC[C@H]2C(=O)O[C@H]([C@H](C)C[C@@H]2CC[C@@H](O)[C@H](OC)C2)C[C@H](O)[C@H](C)/C=C(\C)[C@H]1O [AP21967, C-16-(S)-7-methylindole rapamycin]	more efficiently encapsulated	more efficiently encapsulated	increases depending on the AP21967 concentration	
CC(C)CN(C[C@@H](O)[C@H](Cc1ccccc1)NC(=O)O[C@H]1CO[C@H]2OCC[C@H]21)S(=O)(=O)c1ccc(N)cc1 [Darunavir]				inhibited
